Source: patent publication US20060229255A1, “Identification of n-alkylglycine trimers for induction of apoptosis” (priority 2003, published 2006)

Legend:
Assay type in all cases: cell-based, human
T98 g cells = assay: Cell cycle DNA analysis in synchronized cells; details: 19 h after serum re-addition, 100 μM
Procedure: Experimentally this finding was substantiated analysing the compounds in a cellular model with synchronized cells. T98 g cells were arrested in G1 phase (82%) by serum starvation in MCDB 105 medium after 72 h. Upon 10% serum re-addition, cells were allowed to re-enter into the cell cycle. More than 50% of the cells were in the S-phase, and only 20% remained in G1 after 19 h of FCS introduction. Addition of N10-13-10C or N13-13-10C to the cultures at the moment of serum addition restrained S-phase entry (FIG. 7. A). Around 40% of the cells were retained in G1. In conclusions both N10-13-10C and N13-13-10C were able to induce a G1 arrest either in asynchronous or in synchronized cell cultures, as determined by cell cycle DNA analysis. In comparison, Olomucine which is a cdk2 inhibitor, retained 80% of the cells in G1. The topoisomerase II inhibitor etoposide treated cells were arrested in S phase of the cell cycle (85% of the cell population).
DNA analysis. Floating and adherent cells treated with the compounds were collected by trypsinization and washed twice with PBS. The cells were permeabilized overnight at −20° C. with ice-cold ethanol 70%. The cells were washed in PBS, adjusted at 0.5×10^6 cells/ml and incubated with 20 μg/ml Propidium Iodide and 2 μl/ml RNase DNase-free for 30 min at 30° C. Cells were maintained overnight at 4° C. and then analysed by flow cytometry. Flow cytometric experiments were carried out using an Epics XL flow cytometer (Coulter Corporation, Hialeah, Fla.). The instrumet was set up with the standard configuration: excitation of the sample was done using an standard 488 nm air-cooled argon-ion laser at 15 mW power. Forward scatter (FSC), side scatter (SSC) and red (620 nm) fluorescence for PI were adquired. Optical alignement was based on optimized signal from […] fluorescent beads (Immunocheck, Epics Division). Time was used as a control of the stability of the instrument. Red fluorescence was projected on a 1024 monoparametrical histogram. Aggregates were excluded gating single cells by their area vs. peak fluorescence signal. DNA analysis (Ploidy analysis) on single fluorescence histograms was done using Multicycle software (Phoenix Flow Systems, San Diego, Calif.).
(§1) FIG. 7. […] (A) T98 g cells were synchronized and reinitiated for 19 h with FCS alone or in combination with N10-13-10C (100 μM), N13-13-10C (100 μM), Olomucine (100 μM), etoposide (5 μM) or Taxol (30 nM). Cell cycle profile was assessed by propidium iodide DNA staining and analyzed by flow cytometry. The fraction of cells with G1, S, G2/M DNA content are shown as % of total cell population. (B. and C.) Synchronized T98 g cells were reinitiated with FCS alone or in combination with serial dilutions of N4-13-10C, N5-13-10C, N10-13-10C, N13-13-10C, Olomucine or etoposide for 19 h and labeled with BrdU during the last 2 h. BrdU incorporation was assessed by ELISA using anti-BrdU antibodies. An arbitrary value of 100% was assigned to the densiometric rate of DNA synthesis by untreated cultures and all other values are depicted relative to that reference. The values are means of three (n=3) replicates.

T98g glioblastoma cells = assay: BrdU incorporation assay (DNA synthesis); details: synchronized T98 g, 17 h + 2 h BrdU; read-out: IC50 BrdU incorporation (DNA synthesis inhibition)
Procedure: To confirm the G1 arrest of the cell cycle, we analyzed the DNA synthesis by an BrdU incorporation assay. Serial dilutions of the compounds N4-13-10C, N5-13-10C, N10-13-10C, N13-13-10C, etoposide or olomucine were assayed on synchronized T98 g cells as described in FIG. 7. A. Arrested cells were induced to cell cycle re-entry by re-addition of serum alone or with test compounds for 17 h, followed by 2 h in combination with 10 μM BrdU.
BrdU assay. T98g glioblastoma cells at 5000 cells/well in microtiter plates were arrested in G1-phase for 72 h by serum deprivation in MCDB 105 medium. By serum (10%) readdition, cells were treated with serial dilutions of the compounds for 17 h, and followed in combination 10 μM BrdU for […]. BrdU incorporation, i.e. DNA synthesis, was quantified with Cell Proliferation ELISA system, vs. 2 (AmershamPharmacia biotech) as described by the manufacturer.
as §1

pRb, p21Cip1, p27Kip1 = assay: Western blot of G0/G1 checkpoint proteins in HT29 cells; details: for pRb levels compared to controls: HT29, after 24 h in culture
Procedure: Western blotting. Floating and adherent cells were harvested and pellets were resuspended in RIPA buffer (50 mM Tris/HCl 7.4, 250 mM NaCl, 0,5% Igepal CA630, 5 mM EDTA, 1 mM PMSF, 10 μg/ml leupeptin, 50 mM NaF, 0.1 mM Na3VO4) or Deoxycholate buffer (10 mM phosphate buffer 7.4, […] NaCl, 0.5% Deoxycholate, 1% Igepal, 0.1% SDS, 1 mM PMSF). Protein concentration was determined with BCA Protein Assay Kit (Pierce) for RIPA extracts or Bradford assay (BioRad) for Deoxycholate extracts. Total protein (20-30 μg/lane) were separated by SDS-PAGE, transferred to PVDF membranes (Gellman), and probed with antibodies against Bcl-xL (Transduction); Bax (Santa Cruz); JNK (Santa Cruz); phospho-JNK (Cell Signaling); pRb (Pharmingen); pRb-phospho Ser780 (Cell Signalling); p130 (Santa Cruz); p107 (Santa Cruz); Cdk2 (Santa Cruz); p27^Kip1 (Santa Cruz); p21^Cip1 (Santa Cruz); actin (Sigma); or tubulin (ICN) and developed with ECL system (AmershamPharmacia biotech)
FIG. 8. Expression of protein involved in G0/G1 checkpoint. (A.) HT29 cells were treated for 1, 3, 6 and 24 h with N10-13-10C (40 μM) or N13-13-10C (35 µM), harvested and immunoblotted to assess total pRb levels or Cdk4 specific phosphorylation at pRb-Ser^780 (PpRb). Western blot was first probed with the pRb-Ser^780 phosphorylation specific antibody, was stripped and reprobed with the pan-pRb antibody and tubulin to normalize total protein level. (B.) T98 g cells were synchronized by serum starvation and reinitiated with 10% FCS and DMSO (C), N13-13-10C (100 μM) or Taxol (30 nM) for 15, 17, 24 or 29 h. Western blot of total protein extracts was probed with antibodies to p130, pRb, p107, Cdk2, cycA, p27, p21 and actin. Unphosphorylated, hypophosphorylated as well as hyperphosphorylated pRb are detected (arrows). (C.) HT29 cells treated for 24 and 48 h with N13-13-10C (40 μM) or DMSO as control. Immunoblots were stained with antibodies to Cdk2, cycA, p21, p27 and actin.

Compound | Cells retained in G1 (T98 g cells) | IC50 (T98g glioblastoma cells) | pRb levels compared to controls (pRb, p21Cip1, p27Kip1) | pRb phosphorylation at Ser780 respect to total pRb levels (pRb, p21Cip1, p27Kip1; HT29, 35 μM, 1-24 h) | p21Cip1 expression (pRb, p21Cip1, p27Kip1; HT29, 24 h and 48 h) | p27Kip1 expression (pRb, p21Cip1, p27Kip1; HT29, 24 h and 48 h)
COc1ccc(CCN(CC(=O)N(CCc2ccccc2)CC(N)=O)C(=O)CNCCc2ccccc2)cc1 [N10-13-10C] | Around 40% | 100 µM | decreased |  |  | 
COc1ccc(CCNCC(=O)N(CCc2ccc(OC)cc2)CC(=O)N(CCc2ccccc2)CC(N)=O)cc1 [N13-13-10C] | Around 40% | 150 µM | decreased | did not decrease | Over expression | Over expression
